The target of one series is T1, human 5-HT6 receptor (Homo sapiens, UniProt P50406).
T1 construct: expressed in transfected cells; host or cells: HEK-293 cells under G-418 selection; membranes were prepared from them
Description: 5-HT6 binding assay ([3H]-LSD, SPA, membranes of transfected HEK293 cells).

Series [1] in a line: Plasma drug concentration at steady state in the food intake study. Particulars: mouse, subcutaneous, 50 mg/kg/day, Ob/ob mice, single administration 50 mg/kg/d, read-out: Css, u. It counts as in vivo. As to the method:
The animals are weighed at the start of the study and randomized based on body weight. Alzet osmotic minipumps (Model 2001D; infusion rate 8 μl/h) are used and loaded essentially as recommended by the Alzet technical information manual (Alza Scientific Products, 1997; Theeuwes, F. and Yam, S. I. Ann. Biomed. Eng. 4(4). 343-353, 1976). Continuous subcutaneous infusion with 24 hours duration is used. The minipumps are either filled with different concentrations of test compounds dissolved in vehicle or with only vehicle solution and maintained in vehicle pre-warmed to 37° C. (approx. 1 h). The minipumps are implanted subcutaneously in the neck/back region under short acting anesthesia (metofane/enflurane). This surgical procedure lasts approximately 5 min. It takes about 3 h to reach steady state delivery of the compound.
The weight of the food pellets are measured at 5 p.m. and at 8 p.m. for two days before (baseline) and one day after the implantation of the osmotic minipumps. The weigh-in is performed with a computer assisted Mettler Toledo PR 5002 balance. Occasional spillage is corrected for. At the end of the study the animals are killed by neck dislocation and trunk blood sampled for later analysis of plasma drug concentrations.
The plasma sample proteins are precipitated with methanol, centrifuged and the supernatant is transferred to HPLC vials and injected into the liquid chromatography/mass spectrometric system. The mass spectrometer is set for electrospray positive ion mode and Multiple Reaction Monitoring. A linear regression analysis of the standards forced through the origin is used to calculate the concentrations of the unknown samples.

For another series, the system named is Ob/ob mice. Briefly: In vivo assay of reduction of food intake. The arrangement: species or system mouse. Particulars: infusion 50 mg/kg/d, measured at steady state. As to the method: (c) In Vivo Assay of Reduction of Food Intake
Obese (ob/ob) mouse is selected as the primary animal model for screening as this mutant mouse consumes high amounts of food resulting in a high signal to noise ratio. To further substantiate and compare efficacy data, the effect of the compounds on food consumption is also studied in wild type (C57BL/6J) mice. The amount of food consumed during 15 hours of infusion of compounds is recorded.
Male mice (obese C57BL/6JBom-Lep^ob and lean wild-type C57B1/6JBom; Bomholtsgaard, Denmark) 8-9 weeks with an average body weight of 50 g (obese) and 25 g (lean) are used in all the studies. The animals are housed singly in cages at 23±1° C., 40-60% humidity and have free access to water and standard laboratory chow. The 12/12-h light/dark cycle is set to lights off at 5 p.m. The animals are conditioned for at least one week before start of study.
The test compounds are dissolved in solvents suitable for each specific compound such as cyclodextrin, cyclodextrin/methane sulfonic acid, polyethylene glycol/methane sulfonic acid, saline. Fresh solutions are made for each study. Doses of 30, 50 and 100 mg kg^−1day^−1 are used. The purity of the test compounds is of analytical grade.
The animals are weighed at the start of the study and randomized based on body weight. Alzet osmotic minipumps (Model 2001D; infusion rate 8 μl/h) are used and loaded essentially as recommended by the Alzet technical information manual (Alza Scientific Products, 1997; Theeuwes, F. and Yam, S. I. Ann. Biomed. Eng. 4(4). 343-353, 1976). Continuous subcutaneous infusion with 24 hours duration is used. […]
The weight of the food pellets are measured at 5 p.m. and at 8 p.m. for two days before (baseline) and one day after the implantation of the osmotic minipumps. […]
Food consumption for 15 hours is measured for the three consecutive days and the percentage of basal level values is derived for each animal from the day before and after treatment. The values are expressed as mean±SD and ±SEM from eight animals per dose group. […]

Setting [2] is: In vitro binding at the human 5-HT6 receptor, [3H]-LSD as labeled ligand, read-out: Ki (nM) human 5-HT6.

Each structure is given as a SMILES string. Counter-ions that a name gives are not always drawn. Like-named read-outs stand apart in the source and are kept apart here.

T1 sequence (P50406 whole entry): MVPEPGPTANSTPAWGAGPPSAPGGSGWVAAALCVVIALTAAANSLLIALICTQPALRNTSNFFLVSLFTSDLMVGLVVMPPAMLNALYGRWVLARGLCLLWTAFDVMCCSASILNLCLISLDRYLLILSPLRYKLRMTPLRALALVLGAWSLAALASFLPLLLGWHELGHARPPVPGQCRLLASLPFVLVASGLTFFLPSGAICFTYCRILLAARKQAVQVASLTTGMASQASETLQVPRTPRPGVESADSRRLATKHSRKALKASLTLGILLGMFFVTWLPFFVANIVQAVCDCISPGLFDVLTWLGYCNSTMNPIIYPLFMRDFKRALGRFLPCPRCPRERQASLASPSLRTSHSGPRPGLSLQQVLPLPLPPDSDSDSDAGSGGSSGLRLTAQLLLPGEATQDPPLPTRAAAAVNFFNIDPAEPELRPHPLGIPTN

A word on the Ki: it is a measure of affinity in units of concentration, obtained from inhibition or displacement. `Cl.O=S(=O)(c1ccccc1)c1ccc2nccc(N3CCNCC3)c2c1` [Example 1, 6-benzenesulfonyl-4-piperazin-1-yl-quinoline hydrochloride]: at human 5-HT6 receptor (setting [2]), the Ki was 10 nM. In addition, in series [1], the concentration at 24 h was 440 nM. For the same compound, in the series with Ob/ob mice, the “% FI reduction” value amounted to 12%.

Turning to `NCCc1c[nH]c2ccc(O)cc12` [Example 5-HT, 5-hydroxytryptamine, reference compound], on human 5-HT6 receptor (inter assay variability over three experiments), the Hill coefficient was 0.94 (SD 0.09).

Consider `CC(C)(C)c1ccc(S(=O)(=O)c2ccc3nccc(N4CCNCC4)c3c2)cc1.Cl` [Example 11, 6-[(4-tert-Butylphenyl)sulfonyl]-4-piperazin-1-ylquinoline hydrochloride], for which, on human 5-HT6 receptor (setting [2]), the Ki was found to be 6.5 nM. In series [1], the concentration at 24 h was 20 nM. The “% FI reduction” value in the series with Ob/ob mice was found to be 47.1%.

Turning to `Cc1ccc(C)c(S(=O)(=O)c2ccc3ccnc(N4CCNCC4)c3c2)c1` [Example 20, 7-(2,5-Dimethyl-benzenesulfonyl)-1-piperazin-1-yl-isoquinoline hydrochloride], the Ki on human 5-HT6 receptor (setting [2]) worked out at 10.5 nM.

On to `Cl.O=S(=O)(Nc1ccc(O[C@@H]2CCNC2)c2ccccc12)c1ccc(Cl)cc1` [Example 40, 4-Chloro-N-{4-[(3R)-pyrrolidin-3-yloxy]-1-naphthyl}benzenesulfonamide hydrochloride], for which the Ki on human 5-HT6 receptor (setting [2]) turned out to be 7.5 nM. The concentration at 24 h in series [1] is 200 nM. The “% FI reduction” value in the series with Ob/ob mice is listed as 44%.

As for `CN1CCN(c2nccc3sc(S(=O)(=O)Nc4ccccc4)cc23)CC1` [Example 43, 4-(4-Methylpiperazin-1-yl)-N-phenylthieno[3,2-c]pyridine-2-sulfonamide hydrochloride], the Ki at human 5-HT6 receptor (setting [2]) turned out to be 4.5 nM.

Turning to `O=S(=O)(NCCc1cccs1)c1cc2c(N3CCNCC3)nccc2s1` [Example 68, 4-Piperazin-1-yl-thieno[3,2-c]pyridine-2-sulfonic acid (2-thiophen-2-yl-ethyl)-amide hydrochloride], the Ki at human 5-HT6 receptor (setting [2]) was found to be 13 nM.

As for `O=S(=O)(c1cc2c(N3CCCNCC3)nccc2s1)c1cccc2ccccc12` [Example 85, 4-(1,4-Diazepan-1-yl)-2-[1-naphthylsulfonyl)thieno[3,2-c]pyridine hydrochloride], the Ki at human 5-HT6 receptor (setting [2]) came out at 32 nM.

For `O=S(=O)(c1ccccc1)n1ccc2c(N3CCNCC3)nccc21` [Example 131, 1-(Phenylsulfonyl)-4-piperazin-1-yl-1H-pyrrolo[3,2-c]pyridine hydrochloride], the affinity on human 5-HT6 receptor corresponds to a Ki of 5 nM.

On to `CN1C[C@@H](NS(=O)(=O)N(C)C)C[C@@H]2c3cccc4c3c(cn4C)C[C@H]21` [mesulergide, reference compound], for which the Ki at human 5-HT6 receptor (3 nM [3H] LSD, 5-HT: over all average against two different membrane preparations, read-out: Ki value, inhibition of [3H] LSD binding (reference compounds, rank order of potency)) amounted to 1970 nM.

(Values after patent publication US7943639B2, “Compounds” (Proximagen Limited, priority 2002, dated 2011).)
